Measurements published in patent US20050226858A1, “Compositions containing reduced coenzyme Q10 and carotenoid” (KANEKA CORPORATION, priority 2004, published 2005).

What was measured:
[1] = system: thiobarbituric acid-reactive substances (TBARS) in rat brain homogenate; assay: Antioxidative activity, method 1: TBARS level in oxidised rat brain homogenate; format: biochemical; conditions: ethanol solutions, 100 mM of each substance, 37° C., 27 hours
Description: In method 1 of measuring antioxidative activity, a level of thiobarbituric acid-reactive substances (TBARS) generated by an oxidative reaction was determined (Buege J. A. and Aust S. D., Methods Enzymol., 1978, 52: 302).
In this method, rat brain was homogenized in about 2.5 times by weight of saline to prepare a brain homogenate. The brain homogenate (80 μl), an ethanol solution (30 μl) containing antioxidative substance, Eagle's MEM medium (120 μl) , CuSO4 (240 μM), and FeCl3 (240 μM) were mixed and the mixture was maintained at 37° C. for 27 hours. Then, a 20% trichloroacetic acid (TCA) solution (0.9 ml) and a 0.67% thiobarbituric acid (TBA) solution (0.9 ml) were added and the resulting mixture was heated at 100° C. for 30 minutes. After cooling by water, the mixture was centrifuged to separate a supernatant. The absorbance of the supernatant was measured at 532 nm. […] The antioxidative activity (%) of an antioxidative substance was determined by the ratio of a decrease of the TBARS content in the presence of an antioxidative substance to the TBARS content in the absence of an antioxidative substance.
According to the above-mentioned methods, the antioxidative activity (A) in combination of reduced coenzyme Q10 and a carotenoid, the antioxidative activity (B) of reduced coenzyme Q10 used alone, and the antioxidative activity (C) of the carotenoid used alone are measured. […]

[2] = Antioxidative activity, method 2: DPPH spectrometry; conditions: ethanol solutions, 25 μM of each substance, after 20 minutes, calibrated with catechin
Description: Since the TBARS is red, method 1 cannot accurately determine absorbance of some carotenoids. Therefore, spectrometry using 1,1-dipehnyl-2-picrylhydrazyl (DPPH) was also conducted (K. Shinohara and T. Suzuki, Shokuhin-Kinou-Kenkyuho (Methods for Functional Food Analysis), 2000, 218).
In method 2, 12 ml of a 200 mM MES buffer (pH 6.0) was added to 12 ml of a 400 μM DPPH ethanol solution. Then, 12 ml ethanol was added to prepare a mixture. An ethanol solution (0.6 ml) containing an antioxidative substance was added to the mixture (0.9 ml). After 20 minutes, the absorbance of the mixture was measured at 510 nm. In this measuring system, the absorbance decreases as the antioxidative activity of the antioxidative substance increases. The antioxidative activity of the antioxidative substance was quantitatively determined using a calibration curve prepared with catechin. Namely, the minimum absorbance when DPPH radicals were completely consumed with an excess amount of catechin corresponded to 100% antioxidative activity. The maximum absorbance when DPPH radicals were not consumed at all corresponded to 0% antioxidative activity. The calibration curve was drawn from these 2 points and the antioxidative activity (%) was determined from the absorbance of the antioxidative substance.
According to the above-mentioned methods, the antioxidative activity (A) in combination of reduced coenzyme Q10 and a carotenoid, the antioxidative activity (B) of reduced coenzyme Q10 used alone, and the antioxidative activity (C) of the carotenoid used alone are measured. The antioxidative activity in combination of reduced coenzyme Q10 and the carotenoid is compared with the sum (additive effect) of the antioxidative activity of reduced coenzyme Q10 alone and the antioxidative activity of the carotenoid alone in order to investigate the synergistic effect.
In the present invention, both the following two formulae were used to correctly determine if the use in combination of reduced coenzyme Q10 and a carotenoid show synergistic effect. […]

SMILES	Antioxidative Activity (%) (Inhibition Ratio of Oxidation) [1]	Antioxidative Activity (%) (Inhibition Ratio of Oxidation) [2]
CC1=C(/C=C/C(C)=C/C=C/C(C)=C/C=C/C=C(C)/C=C/C=C(C)/C=C/C2=C(C)C(=O)[C@@H](O)CC2(C)C)C(C)(C)C[C@H](O)C1=O [Astaxanthin, astaxanthin]	21.6	–
CC(C)=CCC/C(C)=C/C=C/C(C)=C/C=C/C(C)=C/C=C/C=C(C)/C=C/C=C(C)/C=C/C=C(\C)CCC=C(C)C [Lycopene, lycopene]	–	0.9
COc1c(O)c(C)c(C/C=C(\C)CC/C=C(\C)CC/C=C(\C)CC/C=C(\C)CC/C=C(\C)CC/C=C(\C)CC/C=C(\C)CC/C=C(\C)CC/C=C(\C)CCC=C(C)C)c(O)c1OC [Reduced coenzyme Q10, reduced coenzyme Q10]	10.9	10.3
CC1=C(/C=C/C(C)=C/C=C/C(C)=C/C=C/C=C(C)/C=C/C=C(C)/C=C/C2=C(C)CCCC2(C)C)C(C)(C)CCC1 [β-Carotene, β-carotene]	–	8.8
